Experimental data as given in patent US5643877A, “Compounds comprising gonadotropin releasing hormone (GnRH) and methods for controlling reproduction in fish” (University of Maryland Biotechnology Institute, priority 1994, dated 1997).
“Also recorded” adds a separate entry of the source. Square brackets hold non-standard residues; d marks the D form. Peptide text beside a SMILES is read from it. pGlu = O=C1CC[C@@H](C(=O)O)N1

Test system: GtH-II secretion in female gilthead seabream
Assay: In vivo gonadotropin-releasing potency: plasma GtH-II by homologous radioimmunoassay after intramuscular injection of GnRH peptides
Design: species or system Sparus aurata
Details: for gonadotropin (GtH-II) secretion of sbGnRH, its analogs and the mGnRH analog compared (in words) / blood GtH-II levels, times higher than in sbGnRH-injected females: third experiment; for gonadotropin (GtH-II) secretion of sbGnRH, its analogs and the mGnRH analog compared (in words): 5 μg/kg body weight, 1.5, 4 and 8 hours post-injection; for GtH-II levels, times higher than in saline-injected fish: 25 μg/kg body weight; for stimulation of GtH-II secretion (in words): reproductively mature seabream females, native peptides injected at 5 and 25 μg/kg body weight
Protocol: During the spawning season, 104 female seabream at 2 years of age, weighing 458±104 g, with preovulatory oocytes of 500-600 μm in diameter were selected for experimentation. Oocyte developmental stage was determined by microscopic examination of a freshly removed ovarian biopsy, as previously described (Zohar et al., 1979, J. Fish Biol. 15:665-670). The bioactivity of the native forms of GnRH and of the GnRH analogs was studied in three consecutive experiments, carried out on day 1, day 3, and day 8. The first experiment included four groups of eight females. Three groups were injected with 5 μg/kg body weight of either sbGnRH, sGnRH or cGnRH-II. The fourth group was injected with saline. The second experiment included four similar groups, except that the peptides were injected at a dose of 25 μg/kg body weight. The third experiment included five groups, each with eight females. One group was injected with native sbGnRH; two other groups were each injected with an analog of sbGnRH, the [D-Ala^6,Pro^9 -NEt]-sbGnRH and [D-Arg^6,Pro^9 -NEt]-sbGnRH; another group was injected with the analog of the mammalian GnRH, [D-Ala^6,Pro^9 -NEt]-mGnRH; and the last group was injected with saline. All peptides in the third experiment were injected at a dose of 5 μg/kg body weight.
In all experiments, the tested peptides were injected into the dorsal musculature, in a volume of 0.5 ml/kg body weight. Each group of fish was held in a separate 600 liter tank exposed to natural photoperiod conditions and supplied with sea water at 20° C. Fish were bled before the injection of the peptides and at 1.5, 4 and 8 hours post-injection. At each bleeding time, 1 ml of blood was removed from the caudal vessels, using a 1 ml syringe fit with a 21G needle. Prior to injection and bleeding, fish were anesthetized in 0.2 ppt of 2-phenoxy-ethanol. Blood was immediately centrifuged and plasma removed and frozen. Levels of seabream GtH-II in the plasma samples were measured using a homologous and specific radioimmunoassay, as previously described (Zohar et al., 1990, Aquaculture 88:189-204). Blood GtH-II levels in the various groups were statistically compared using ANOVA followed by Duncan new multiple range comparison test.

[1] = 5 μg/kg body weight, 1.5 hours post-injection
[2] = 5 μg/kg body weight, 4 hours after injection
[3] = 5 μg/kg dose, 1.5 hr after injection
[4] = 25 μg/kg body weight, 1.5, 4 and 8 hours post-injection
[5] = 25 μg/kg dose, 1.5 hr after injection
[6] = native GnRH forms, 5 and 25 μg/kg body weight

Row | SMILES | gonadotropin (GtH-II) secretion of sbGnRH, its analogs and the mGnRH analog compared (in words) | blood GtH-II levels, times higher than in sbGnRH-injected females (5 μg/kg body weight, 1.5 hr) [times] | blood GtH-II levels, times higher than in sbGnRH-injected females (5 μg/kg body weight, 8 hr) [times] | blood GtH-II levels, times higher than in control females [1] | blood GtH-II levels, times higher than in control females [2] | blood GtH-II levels versus control females (5 μg/kg body weight, 8 hours post-injection) | potency in inducing GtH-II secretion, times more potent than sGnRH [3] [times] | potency in inducing GtH-II secretion, times more potent than sbGnRH [3] [times] | GtH-II-releasing potency of the native peptides compared (in words) [4] | GtH-II levels, times higher than in saline-injected fish (1.5 hr after injection) [times] | GtH-II levels, times higher than in saline-injected fish (4 hr after injection) [times] | GtH-II levels, times higher than in saline-injected fish (8 hr after injection) [times] | potency in inducing GtH-II secretion, times more potent than sGnRH [5] [times] | potency in inducing GtH-II secretion, times more potent than sbGnRH [5] [times] | GtH-II-releasing potency of the native peptides compared (in words) [6] | stimulation of GtH-II secretion (in words)
1 | CCNC(=O)[C@@H]1CCCN1C(=O)[C@H](CO)NC(=O)[C@H](CC(C)C)NC(=O)[C@@H](C)NC(=O)[C@H](Cc1ccc(O)cc1)NC(=O)[C@H](CO)NC(=O)[C@H](Cc1c[nH]c2ccccc12)NC(=O)[C@H](Cc1c[nH]cn1)NC(=O)[C@@H]1CCC(=O)N1 [[D-Ala^6,Pro^9-.NEt]-sbGnRH, [D-Ala^6,Pro^9 -NEt]-sbGnRH] ([pGlu]HWSY[dA]LSP-NHEt) | significantly stronger gonadotropin secretion than did the native sbGnRH; also recorded: equipotent; also recorded: much less potent; also recorded: in the same range as those induced by the native sGnRH and cGnRH-II | 5 | 2.5 | – | – | – | – | – | – | – | – | – | – | – | – | –
2 | CCNC(=O)[C@@H]1CCCN1C(=O)[C@H](CO)NC(=O)[C@H](CC(C)C)NC(=O)[C@@H](CCCNC(=N)N)NC(=O)[C@H](Cc1ccc(O)cc1)NC(=O)[C@H](CO)NC(=O)[C@H](Cc1c[nH]c2ccccc12)NC(=O)[C@H](Cc1c[nH]cn1)NC(=O)[C@@H]1CCC(=O)N1 [[D-Arg^6, Pro^9 -NEt]-sbGnRH] ([pGlu]HWSY[dR]LSP-NHEt) | – | 5 | 2.5 | – | – | – | – | – | – | – | – | – | – | – | – | –
3 | NC(=O)CNC(=O)[C@@H]1CCCN1C(=O)[C@H](Cc1ccc(O)cc1)NC(=O)[C@H](Cc1c[nH]c2ccccc12)NC(=O)CNC(=O)[C@H](Cc1c[nH]cn1)NC(=O)[C@H](CO)NC(=O)[C@H](Cc1c[nH]c2ccccc12)NC(=O)[C@H](Cc1c[nH]cn1)NC(=O)[C@@H]1CCC(=O)N1 [cGnRH-II, pGlu-His-Trp-Ser -His-Gly-Trp-Tyr-Pro-Gly-NH2, reference compound] ([pGlu]HWSHGWYPG-NH2) | – | – | – | 14.50 times | 6.2 times | higher GtH-II levels | 1.75 | 8 | cGnRH-II>sGnRH>sbGnRH; also recorded: induced higher GtH-II secretion than did sGnRH or sbGnRH | 31.0 | 10.9 | 5.5 | 2 | 7 | significantly more potent than the novel sbGnRH | significantly stimulate GtH-II secretion
4 | CC(C)C[C@H](NC(=O)CNC(=O)[C@H](Cc1ccc(O)cc1)NC(=O)[C@H](CO)NC(=O)[C@H](Cc1c[nH]c2ccccc12)NC(=O)[C@H](Cc1c[nH]cn1)NC(=O)[C@@H]1CCC(=O)N1)C(=O)N[C@@H](CO)C(=O)N1CCC[C@H]1C(=O)NCC(N)=O [sbGnRH, pGlu-His-Trp-Ser-Tyr-Gly-Leu-Ser-Pro-Gly-NH 2] | did not induce significant release of GtH-II | – | – | tended to be higher than in the control females | not different from control levels | – | – | – | cGnRH-II>sGnRH>sbGnRH | 4.4 | – | – | – | – | less active than cGnRH-II and sGnRH | significantly stimulate GtH-II secretion
